The test system of series [1] is Mus musculus. Briefly: Anticonvulsant activity in CD-1 mouse assessed as protection against maximal electroshock induced seizure at ip administrated for 30 mins. In kind it is functional. The following applies: CD-1, 0.5 h. A general note: In the maximal electroshock model the usual endpoint is tonic extension of the hind limbs.
Series [2] is described as follows: Toxicity in CD-1 mouse assessed as median toxicity dose at ip administration for 30 mins by rotorod test. In kind it is organism-based. Particulars: in vivo. Background: Falling from the rotarod earlier than controls is read as motor impairment.
Series [3] has as its system Mus musculus. Briefly: Anticonvulsant activity in CD-1 mouse assessed as protection against Sc-Met induced seizure at ip administrated for 30 mins. In kind it is functional. The following applies: CD-1, 0.5 h.
The nature of series [4]: Protective index, ratio of TD50 for toxicity in Sprague-Dawley rat assessed as median toxicity dose at po administration upto 4 hrs by rotorod test to ED50 for anticonvulsant activity in Sprague-Dawley rat assessed as protection against maximal electroshock induced seizure at po administration upto 4 hrs. In kind it is organism-based. The following applies: in vivo, read-out: Ratio TD50/ED50.

Series [5] is described as follows: Toxicity in Sprague-Dawley rat assessed as median toxic dose at po administrated upto 4 hrs by rotorod test. In kind it is organism-based. Particulars: in vivo.
Series [6] concerns Mus musculus. Briefly: Anticonvulsant activity in mouse assessed as protection against 6-Hz induced seizure at ip administration upto 2 hrs. In kind it is functional.
The test system of series [7] is Rattus norvegicus. Kind of series: Anticonvulsant activity in Sprague-Dawley rat assessed as protection against maximal electroshock induced seizure at po administration. In kind it is functional.
The test system of series [8] is Mus musculus. Briefly: Anticonvulsant activity in Albino mouse assessed as protection against Sc-PTZ induced seizure at ip administration for 30 mins. In kind it is functional. Particulars: 0.5 h.
Series [9] concerns Mus musculus. Kind of series: Anticonvulsant activity in CD-1 mouse assessed as protection against 6-Hz Psychomotor induced seizure at ip administration. In kind it is functional.
Series [10] has as its system Mus musculus. Briefly: Anticonvulsant activity in mouse assessed as inhibition of maximal electroshock induced seizure at 200 mg/kg,po administration for 120 mins. In kind it is functional. Particulars: 2 h.
Series [11] deals with Mus musculus. Briefly: Anticonvulsant activity in mouse assessed as protection against maximal electroshock induced seizure at ip administration for 120 mins. In kind it is functional. The following applies: 2 h.
A short description of series [12]: Hepatotoxicity in rat assessed as total protein level at 100 mg/kg,ip administrated for 2 hrs by spectrophotometric method. The following applies: in vivo. In kind it is toxicity, organism-based.
For series [13], the system named is Rattus norvegicus. Briefly: Anticonvulsant activity in rat brain assessed as increase in GABA level at 100 mg/kg,ip administrated for 2 hrs by spectrophotometric method. In kind it is functional.
Series [14] can be described thus: Hepatotoxicity in rat assessed as total albumin level at 100 mg/kg,ip administrated for 2 hrs by spectrophotometric method. In kind it is toxicity, organism-based. The following applies: in vivo.
Series [15] concerns Mus musculus. Briefly: Anticonvulsant activity in Albino Swiss CD-1 mouse assessed as protection against maximal electroshock induced seizure at 100 mg/kg,ip administration. In kind it is functional.
For series [16], the system named is Mus musculus. Briefly: Anticonvulsant activity in Albino Swiss CD-1 mouse assessed as protection against Sc-Met induced seizure at 100 mg/kg,ip administration. In kind it is functional.
Series [17] can be described thus: Protective index, ratio of TD50 for toxicity in CD-1 mouse assessed as median toxicity dose at ip administration by rotorod test to ED50 for anticonvulsant activity in CD-1 mouse assessed as protection against maximal electroshock induced seizure at ip administration. In kind it is organism-based. Particulars: in vivo, read-out: Ratio TD50/ED50.
The test system of series [18] is Mus musculus. Briefly: Anticonvulsant activity in CD-1 mouse assessed as protection against maximal electroshock induced seizure at ip administrated for 2 hrs. In kind it is functional.
Series [19] concerns Mus musculus. Kind of series: Anticonvulsant activity in CD-1 mouse assessed as protection against Sc-PTZ induced seizure at ip administrated for 2 hrs. In kind it is functional.
Series [20] can be described thus: Protective index, ratio of TD50 for toxicity in CD-1 mouse assessed as median toxicity dose at ip administration by rotorod test to ED50 for anticonvulsant activity in CD-1 mouse assessed as protection against Sc-PTZ induced seizure at ip administration. In kind it is organism-based. The following applies: in vivo, read-out: Ratio TD50/ED50.
Series [21] has as its system Rattus norvegicus. Briefly: Anticonvulsant activity in rat assessed as protection against Sc-metrazol induced seizure at po administration. In kind it is functional.
For series [22], the system named is Mus musculus. Briefly: Anticonvulsant activity in mouse assessed as protection against Sc-metrazol induced seizure at po administration. In kind it is functional.
Series [23] is described as follows: Neurotoxicity in Swiss mouse assessed as median toxicity dose at ip administration by rotorod test. In kind it is organism-based. The following applies: in vivo.
Series [24] relates to Mus musculus. Kind of series: Anticonvulsant activity against 3-MP induced Swiss mouse seizure model assessed as inhibition of clonic seizures at 50 mg/kg,ip administration for 30 mins. In kind it is functional. Particulars: 0.5 h.
For series [25], the system named is Mus musculus. Kind of series: Anticonvulsant activity against 3-MP induced Swiss mouse seizure model assessed as inhibition of tonic seizures at 50 mg/kg,ip administration for 30 mins. In kind it is functional. Particulars: 0.5 h.
Series [26] is described as follows: Toxicity in 3-MP induced Swiss mouse seizure model assessed as death at 50 mg/kg,ip administration for 30 mins. Particulars: in vivo, read-out: Activity. In kind it is organism-based.
A short description of series [27]: Toxicity in bicuculline induced Swiss mouse seizure model assessed as death at 50 mg/kg,ip administration for 30 mins. In kind it is organism-based. Particulars: in vivo, read-out: Activity.
Series [28] deals with Mus musculus. Briefly: Anticonvulsant activity in Swiss mouse assessed as protection against Sc-PTZ induced seizure at ip administration. In kind it is functional.
The subject of series [29] is Mus musculus. Briefly: Anticonvulsant activity against bicuculline induced Swiss mouse seizure model assessed as inhibition of clonic seizures at 50 mg/kg,ip administration for 30 mins. In kind it is functional. The following applies: 0.5 h.
Series [30] has as its system Mus musculus. Kind of series: Anticonvulsant activity against bicuculline induced Swiss mouse seizure model assessed as inhibition of tonic seizures at 50 mg/kg,ip administration for 30 mins. In kind it is functional. The following applies: 0.5 h.

Structures are written as SMILES. A value given as a limit tells only on which side of the number the result lay.

As a reminder, the ED50 is the dose at which the effect has come halfway, by size or by number of responders. The TD50 is the dose at which the toxic effect under study appears in half of the subjects. On to `Cc1cccc(C)c1NC(=O)c1cc(CO)on1`, for which the ED50 in the series on Mus musculus [1] was 8.7 mg/kg; with Mus musculus [3], greater than 30 mg/kg. Further, the TD50 at 0.5 h in series [2] amounted to 28.5 mg/kg.
As for `CCOC(=O)C1C(=O)C=C(Nc2cc(C)on2)CC1C` (stereo not given), in series [4], the selectivity ratio at 4 h was greater than 49.6. Besides, the TD50 at 4 h in series [5] is greater than 500 mg/kg.
Regarding `CCCC(COC(=O)Nc1ccc(S(N)(=O)=O)cc1)C(C)CC` (stereo not given), the ED50 with Mus musculus [6] was determined as 74 mg/kg.
Turning to `O=C1NC(c2ccccc2)(C2CC2)C(=O)N1CN1CCN(c2ccccc2)CC1` (stereo not given), the ED50 with Rattus norvegicus [7] came to 5.29 mg/kg.
In the case of `O=C1Nc2ccc(Cl)cc2C(c2ccccc2)=NC1/N=N/c1ccc([N+](=O)[O-])cc1` (stereo not given), the Activity in the series on Mus musculus [8] worked out at 100%.
For `CCCC(CCC)C(=O)O` [VALPROIC ACID], the ED50 with Mus musculus [9] was determined as 131 mg/kg.
For orientation: inhibition in vivo means the change of the read-out against control, counted positive when it falls. Turning to `CC1(C)OCC(CO[S+](N)[O-])O1` (stereo not given), the inhibition in vivo at 200 mg/kg in the series on Mus musculus [10] was no less than 80%. In addition, in the series with Mus musculus [11], the ED50 was 105 mg/kg.
For the molecule `Nc1ccc(Cl)cc1-c1n[nH]c(=O)n(-c2ccc(O)cc2)c1=O`, the Activity was determined as 4.78 g/dL in series [12], 87.4 mg in the series on Rattus norvegicus [13] and 1.61 g/dL in [14].
For the molecule `Cl.Cl.O=C1CC(c2ccccc2)(c2ccccc2)CN1CN1CCN(c2ccccc2)CC1`, the Activity in the series with Mus musculus [15] and in the series with Mus musculus [16] was 25% each time.
`CC1(c2ccccc2)CC(=O)N(CCC(=O)N2CCN(c3ccccc3F)CC2)C1=O` (stereo not given): the selectivity ratio in [17] was greater than 3.83; in series [20], greater than 2.63. The ED50 with Mus musculus [18] is 78.3 mg/kg; in the series on Mus musculus [19] it was 114 mg/kg.
In the case of `CONC(=O)C1C(C)(C)C1(C)C`, the ED50 in the series with Rattus norvegicus [21] worked out at 35 mg/kg; with Mus musculus [22], 74 mg/kg.
For `CN1C(=O)CC(=O)N(C)c2cc(NCc3ccc(F)cc3)ccc21`, the TD50 in series [23] was 164 mg/kg. Also, the inhibition in vivo at 50 mg/kg with Mus musculus [24] stood at 100%; in the series with Mus musculus [25], 80%; in the series on Mus musculus [29], 80%; with Mus musculus [30], 100%. Besides, the mortality at 0.5 h in series [26] stood at 20%; in [27], 70%. For the same molecule, the ED50 in the series with Mus musculus [28] turned out to be 68 mg/kg.

These data come from ChEMBL document CHEMBL5241104, “Reactive metabolites of the anticonvulsant drugs and approaches to minimize the adverse drug reaction” (Eur J Med Chem, 2021).
